From patent publication US6677435B2, “Prodrug activation using catalytic antibodies” (The Scripps Research Institute, priority 1999, dated 2004)

Columns and labels:
antibody 38C2 = experiment: Kinetic analysis of antibody 38C2-catalyzed prodrug activation (RP-HPLC); assay type: biochemical, mouse
Description: All antibody reactions were carried out in PBS (pH 7.4) at 37° C. in microfuge tubes. […] Kinetic data were derived from Lineweaver-Burk plots. […] Topoisomerase I and II inhibitor doxorubicin was chosen as a model compound for this prodrug activation concept because its structure activity relationship is well characterized and it has been used previously in ADEPT systems (Niculescu-Duvaz, I. & Springer, C. J. (1997) Adv. Drug Delivery Rev. 26, 151-172). Doxorubicin is a drug approved for cancer therapy that suffers from misdirected toxicity. […] The tertiary aldol was chosen as the first reaction since no known natural enzyme catalyzes this particular type of retro-aldol reaction. […] Typically 38C2 is highly enantioselective, however, under the conditions studied, the reaction proceeded to completion indicative of loss of enantioselectivity and complete activation of the prodrug. According to a pharmacokinetic analysis of ADEPT systems, low kcat values combined with high Km values are expected to increase the tumor to blood ratio of the free drug, leading to a reduction in peripheral toxicity (Yuan, J., Baxter, L. T. & Jain, R. K. (1991). Cancer Res. 51, 3119-3130). […] To this end, both the masking linker and catalytic antibody are being optimized.

[1] = tested on: HT29 human colon carcinoma cells; experiment: Cell growth inhibition assay (lactate dehydrogenase colour reaction), HT29; assay type: cell-based
Description: (§1) Human colon carcinoma cell lines HT29 and LIM1215 were kindly provided by Dr. Lloyd J. Old from The Ludwig Institute for Cancer Research in New York. Human prostate cancer cell line LNCap was purchased from American Type Culture Collection (Manassas, Va.). All cell lines were maintained in RPMI 1640 medium (Hyclone, Logan, Utah) supplemented with 10% fetal bovine serum (Life Technologies, Gaithersburg, Md.) and antibiotic-antimycotic reagents (Life Technologies) containing penicillin, streptomycin, and amphotericin B. The cell lines were cultivated in culture flasks at 37° C. in a humidifying incubator in an atmosphere of 5% CO2.
(§2) Stock solutions of 5 mM doxorubicin and prodoxorubicin in DMF, respectively, were stored at 4° C. For cell growth inhibition assays, 250-μM dilutions of doxorubicin and prodoxorubicin in PBS (pH 7.4) were freshly prepared from the 5 mM stock solutions and further diluted in cell culture medium to yield 10 nM to 25 μM solutions. Methyl vinyl ketone was purchased from Aldrich (Milwaukee, Wis.). Stock solutions of 1 mM camptothecin and procamptothecin in DMF, respectively, were stored at 4° C. […] Prior to the quantitative cell growth inhibition assay, the cell density was qualitatively analyzed by microscopy. This visual evaluation always matched the result of the quantitative analysis. […] For quantification, 50 μl aliquots were transferred to another 96-well plate and the color was read at 490 nm in an ELISA plate reader. The absorbance data were converted to percent cell density with the untreated controls being 100% and the background of the color reaction being 0%.
(§3) The antiproliferative effects of drug and prodrug were monitored by quantifying the cell growth in the presence of a range of concentrations of doxorubicin and prodoxorubicin, respectively. Three different human cancer cell lines were evaluated, human colon carcinoma cell lines HT29 and LIM1215 and human prostate cancer cell line LNCap. […]

[2] = tested on: human prostate cancer cell line LNCap; experiment: Cell growth inhibition assay (lactate dehydrogenase colour reaction), LNCap; assay type: cell-based
Description: as §1, §2, §3

[3] = tested on: LIM1215 human colon carcinoma cells; experiment: Cell growth inhibition assay (lactate dehydrogenase colour reaction), LIM1215; assay type: cell-based; settings: for IC50: Homo sapiens, LIM1215
Description: Stock solutions of 5 mM doxorubicin and prodoxorubicin in DMF, respectively, were stored at 4° C. For cell growth inhibition assays, 250-μM dilutions of doxorubicin and prodoxorubicin in PBS (pH 7.4) were freshly prepared from the 5 mM stock solutions and further diluted in cell culture medium to yield 10 nM to 25 μM solutions. […] Stock solutions of 1 mM camptothecin and procamptothecin in DMF, respectively, were stored at 4° C. For cell growth inhibition assays, 100-μM dilutions of camptothecin and procamptothecin in PBS (pH 7.4) were freshly prepared from the 1 mM stock solutions and further diluted in cell culture medium to yield 10 nM to 1 μM solutions. Cells grown in culture flasks were trypsinized, washed with PBS, resuspended in cell culture medium, and reduced to a single cell suspension by passing through a 18 G needle. After counting, the cells were plated at a density of 5×10^3 (HT29) or 1×10^4 (LIM1215, LNCap) cells/well in 96-well tissue culture plates and maintained in culture as described above. Drugs were diluted to a final concentration range of 10 nM to 25 μM in 100 μl 10% fetal bovine serum in RPMI 1640 and added to the cells 24 hours after plating. […] After drug addition, the cells were maintained at 37° C. in 5% CO2for 3 to 5 days (72 to 120 hours). Prior to the quantitative cell growth inhibition assay, the cell density was qualitatively analyzed by microscopy. […] The cells were then washed with 150 μl PBS (pH 7.5) and incubated with 100 μl of 9% (v/v) Triton-X 100 (Sigma, St. Louis, Mo.) for 45 minutes at 37° C. The supernatant was then transferred to a 96-well V-shaped plate and centrifuged to remove cell debris. […] For quantification, 50 μl aliquots were transferred to another 96-well plate and the color was read at 490 nm in an ELISA plate reader. The absorbance data were converted to percent cell density with the untreated controls being 100% and the background of the color reaction being 0%.

[4] = HT-29, 72 h after drug addition, 50% decrease in cell density vs untreated control
[5] = 72 h after drug addition, 50% decrease in cell density vs untreated control

Row | Compound | IC50 [1, 4] [µM] | IC50 [2, 5] [µM] | IC50 [3, 5] [µM] | other results
1 | CC(=O)CC(C)=O [2,4-pentanedione] | – | – | – | inhibition of 38C2 catalysis of prodoxorubicin cleavage (antibody 38C2): completely inhibited
2 | CC[C@@]1(O)C(=O)OCc2c1cc1n(c2=O)Cc2cc3ccccc3nc2-1 [camptothecin] | 0.1 to 0.25 | 0.01 to 0.025 | 0.1 to 0.25 | –
3 | COc1cccc2c1C(=O)c1c(O)c3c(c(O)c1C2=O)C[C@@](O)(C(=O)CO)C[C@@H]3O[C@H]1C[C@H](N)[C@H](O)[C@H](C)O1 [doxorubicin] | 3 | 0.4 | 0.4 | IC50 ([1]; HT-29, 120 h after drug addition): 2.5 µM; IC50 ([2]; 120 h after drug addition): 0.2 µM; IC50 ([3]; 120 h after drug addition): 0.4 µM
4 | C=CC(C)=O [methyl vinyl ketone] | – | – | – | cell growth inhibition when applied alone ([3]; LIM1215 cells, 120 h, without combination partner): no inhibition of cell growth
